Data published in patent US20210128702A1 (priority 2017, published 2021).

Tests used:
Type in all cases: cell-based
4 MM cell lines = tested on: 4 MM cell lines
[1] = tested on: Non-MM, bone marrow cells (CD138−)
MM.1S cells [2] = tested on: MM.1S cells
MM.1S cells [3] = tested on: MM.1S cells; remark: listed apart in the source
U266 cells = tested on: U266 cells

## CC(C)C[C@H](NC(=O)[C@H](Cc1ccccc1)NC(=O)c1cnccn1)B(O)O [bortezomib]
4 MM cell lines
  polyUb protein fluorescence (proteotoxicity): increased fluorescence in all cell lines
[1]
  polyUb proteins accumulation: only modest polyUb proteins accumulation

## C[C@@H]1C[C@@H]([C@H](O)CC2CC(=O)NC(=O)C2)C(=O)[C@@H](C)C1 [cycloheximide]
MM.1S cells [2]
  effect on polyUb: decreases polyUb
MM.1S cells [3]
  effect on bortezomib-induced apoptosis: decreased bortezomib-induced apoptosis

## tunicamycin
U266 cells
  sensitization to Btz-induced apoptosis: sensitizes U266 cells to Btz-induced apoptosis
